From article PMC8199124, “Design, Synthesis and In-Vitro Biological Evaluation of Antofine and Tylophorine Prodrugs as Hypoxia-Targeted Anticancer Agents” (Molecules, 2021)
Values after ≈ are worked out from the molar mass of the structure shown. Read-outs that look alike come from different tables or passages of the source.

Key:
[1] = BBB-Parallel Artificial Membrane Permeability Assay (BBB-PAMPA); assay type: in vitro ADME; details: mean ± SE
Experimental: The physicochemical properties of the new compounds were evaluated (Table 1). […] Consequently, these derivatives lost their BBB penetrability, as predicted by the BBB-Parallel Artificial Membrane Permeability Assay (BBB-PAMPA), whereas their parent alkaloids had free passage through the BBB.
(§1) Water solubility, logD, and PAMPA-BBB were evaluated using the protocols we previously described.

[2] = system: HCT116; experiment: Cytotoxicity under normoxia and hypoxia (anaerobic chamber, sulphorhodamine B), HCT116; assay type: cell-based, human; details: for IC50: Homo sapiens, HCT-116, 4 h exposure, 5 days growth
Experimental: (§2) We also checked if the designed prodrugs were able to liberate the active alkaloids in hypoxic tumors by testing them under hypoxic conditions using an anaerobic chamber. The three prodrugs 5a–c and their parent alkaloids as well as the reference compounds PR-104A, the parent alcohol form of the phosphate pre-prodrug PR-104, and evofosfamide were tested using the HCT116 and H460 cell lines under both normoxic and hypoxic conditions (Table 5). The prodrugs were much less cytotoxic than the parent drugs, in agreement with our observations using the other cell lines described above (Figure 6).
(§3) The extent to which a prodrug is deactivated relative to its parent drug under normoxic conditions is defined as the Deactivation Ratio (DR). The DR can be simply calculated as DR = IC50 (prodrug)/IC50 (parent drug).
(§4) The efficacy of prodrug activation under hypoxic conditions can be expressed by the Hypoxia Cytotoxicity Ratio (HCR), which can be calculated for a given prodrug as: HCR = normoxic IC50/hypoxic IC50.
(§5) The eight cell lines HEK293 (Human embryonic kidney 293), CHO-K1 (Chinese hamster ovary K1), MCF-7 cells (Human breast adenocarcinoma), HCT116 (human colorectal carcinoma), RKO (Human rectal carcinoma), SW480 (human colorectal carcinoma), H460 (Human lung cancer), and MRC5 (Normal human foetal lung fibroblast), were obtained from the ATCC. The cell lines were routinely grown in alpha minimum essential medium (α-MEM) containing 5% foetal calf serum (FCS). The appropriate number of cells (HCT116 = 400 cells/well, H460 cells = 600 cells/well) were seeded into 96-well plates under normoxic or hypoxic conditions. Cells were plated in 100 µL α-MEM containing 10% FCS, 10mM D-Glucose and 0.2mM 2′-deoxycytidine. After incubation for 2 h, the compounds were added at the appropriate concentration and incubated for further 4 h. The cells were then washed three times with drug-free α-MEM (containing 5% FCS and pen/strep). The plates were then incubated for 5 days under normoxic conditions. The cells were stained with sulphorhodamine B to measure total cells. The IC50 was determined by interpolation as the compound concentration reducing staining to 50% of controls on the same plate.

[3] = system: H460; experiment: Cytotoxicity under normoxia and hypoxia (anaerobic chamber, sulphorhodamine B), H460; assay type: cell-based, human; details: for IC50: Homo sapiens, NCI-H460, 4 h exposure, 5 days growth
Experimental: as §2, §3, §4, §5

[4] = system: MCF7; experiment: Cytotoxicity (MTT) under normoxia, MCF7; assay type: cell-based; details: Homo sapiens
Experimental: (§6) The cytotoxicity of the compounds 5a–c and their parent alkaloids was evaluated by the 3-[4,5-dimethylthiazole-2-yl]-2,5-diphenyltetrazolium bromide (MTT) assay against 5 cancerous and 2 non-cancerous cell lines (Table 4).
as §5

[5] = system: HCT116; experiment: Cytotoxicity (MTT) under normoxia, HCT116; assay type: cell-based; details: Homo sapiens
Experimental: as §6, §5

[6] = system: RKO; experiment: Cytotoxicity (MTT) under normoxia, RKO; assay type: cell-based; details: Homo sapiens, read-out: IC50 RKO
Experimental: as §6, §5

[7] = system: SW480; experiment: Cytotoxicity (MTT) under normoxia, SW480; assay type: cell-based; details: Homo sapiens
Experimental: as §6, §5

[8] = system: MRC5; experiment: Cytotoxicity (MTT) under normoxia, MRC5; assay type: cell-based; details: Homo sapiens
Experimental: as §6, §5

[9] = Solubility in PBS (pH 7.4); assay type: physicochemical; details: aqueous buffer, mean ± SE
Experimental: as §1

[10] = LogD determination; assay type: physicochemical; details: mean ± SE
Experimental: as §1

[11] = Plasma protein binding (PPB); assay type: in vitro ADME; details: mean ± SE, read-out: PPB (% of Bound Compound) (converted)
Experimental: The physicochemical properties of the new compounds were evaluated (Table 1).

[12] = in vitro; details: male, Balb/c, mouse, pH 7.4
Experimental: Mouse hepatic microsomes were isolated from pooled, perfused livers of Balb/c male mice according to the standard protocol. […] Microsomal incubations were carried out in 96-well plates in 5 aliquots of 40 μL each. […] Control incubations were performed by replacing the NADPH-cofactor system with PBS. The additional control incubations in PBS (with 3.3 mM MgCl2) without added microsomes were carried out in this study. […] The incubations were performed in duplicates. Five time points over 40 min had been analyzed. The reactions were stopped by adding 12 volumes of 90% acetonitrile-water to incubation aliquots, followed by protein sedimentation by centrifuging at 5500 rpm for 3 min. The supernatants were analyzed using LC-MS as mentioned above.

[13] = system: HEK293; experiment: Cytotoxicity (MTT) under normoxia, HEK293; assay type: cell-based; details: Homo sapiens, HEK293; normoxia; read-out: IC50 HEK293
Experimental: as §6, §5

[14] = system: CHO-K1; experiment: Cytotoxicity (MTT) under normoxia, CHO-K1; assay type: cell-based, Chinese hamster; details: Cricetulus griseus, CHO-K1; normoxia; read-out: IC50 CHO-K1
Experimental: as §6, §5

[15] = HCT116, HCR = normoxic IC50/hypoxic IC50
[16] = HCT116, hypoxia, read-out: IC50 (Hypoxia)
[17] = HCT116, normoxia, read-out: IC50 (Normoxia)
[18] = H460, HCR = normoxic IC50/hypoxic IC50
[19] = H460, hypoxia, read-out: IC50 (Hypoxia)
[20] = H460, normoxia, read-out: IC50 (Normoxia)

In the case of `CN1CCN(C2=Nc3cc(Cl)ccc3Nc3ccccc32)CC1` [Clozapine], the “Permeability (Papp)” value [1] is reported as −5.1 ± 0.12 Log [10^−6 cm/s].

In the case of `Cn1c(COP(=O)(NCCBr)NCCBr)cnc1[N+](=O)[O-]` [Evofosfamide], the “HCR (Hypoxia Cytotoxicity Ratio)” value [2, 15] is reported as 85, the IC50 [2, 16] is reported as 0.0201 ± 0.003 µM and the IC50 [2, 17] is reported as 0.0239 ± 0.007 µM. For the same compound, the “HCR (Hypoxia Cytotoxicity Ratio)” value [3, 18] was 251, the IC50 [3, 19] was 0.0172 ± 0.001 µM and the IC50 [3, 20] was 4.32 ± 1.93 µM.

For `COc1cc2c3c(c4cc(OC)c(OC)cc4c2cc1OC)CN1CCC[C@@H]1C3` [(R)-Tylophorine], the IC50 ([4]; MCF7, read-out: IC50 MCF7) was 0.101 ± 0.088 µM, the IC50 ([5]; HCT-116, read-out: IC50 HCT116) was 0.44 ± 0.036 µM and the IC50 [6] was 0.338 ± 0.061 µM. For the same compound, the IC50 ([7]; SW480, read-out: IC50 SW480) was 1.15 ± 0.244 µM, the IC50 ([8]; MRC5, read-out: IC50 MRC5) was 0.095 ± 0.006 µM and the “HCR (Hypoxia Cytotoxicity Ratio)” value [2, 15] was 0.6. The IC50 [2, 16] was 0.0564 ± 0.035 µM, the IC50 [2, 17] was 1.71 ± 0.965 µM and the “HCR (Hypoxia Cytotoxicity Ratio)” value [3, 18] was 1.1. It also gave an IC50 [3, 19] of 0.161 ± 0.077 µM and an IC50 [3, 20] of 0.175 ± 0.078 µM.

In the case of `COc1ccc2c3c(c4cc(OC)c(OC)cc4c2c1)C[C@H]1CCCN1C3` [(R)-Antofine, (R)-antofine], the solubility [9] is reported as 27 ± 2 µM (≈ 9.81 µg/mL), the logD [10] is reported as 3.68 ± 0.03 and the “Permeability (Papp)” value [1] is reported as −5.6 ± 0.58 Log [10^−6 cm/s]. The fraction unbound [11] was 0.019, the “Kel (elimination rate constant)” value ([12]; 2 μM) was 0.002 ± 0 min⁻¹ and the half-life at 2 μM ([12]; microsomes) was 1.12 ± 0.035 h. The IC50 [13] was 0.03 ± 0.043 µM, the IC50 [14] was 0.033 ± 0.05 µM and the IC50 ([4]; MCF7, normoxia, read-out: IC50 MCF7) was 0.002 µM. It also gave an IC50 ([5]; HCT-116, normoxia, read-out: IC50 HCT116) of 0.002 µM, an IC50 ([6]; normoxia) of 0.006 ± 0.001 µM and an IC50 ([7]; SW480, normoxia, read-out: IC50 SW480) of 0.009 ± 0.002 µM. The IC50 ([8]; MRC5, normoxia, read-out: IC50 MRC5) was 0.006 ± 0.002 µM, the “HCR (Hypoxia Cytotoxicity Ratio)” value [2] was 0.4 and the IC50 [2, 16] was 0.0167 ± 0.009 µM. For the same compound, the IC50 [2, 17] was 0.0239 ± 0.007 µM, the “HCR (Hypoxia Cytotoxicity Ratio)” value [3] was 0.6 and the IC50 [3, 19] was 0.0254 ± 0.009 µM. For the same compound, the IC50 [3, 20] was 0.0292 ± 0.012 µM.

In the case of `CNC(=C[N+](=O)[O-])NCCSCc1ccc(CN(C)C)o1` [Ranitidine], the “Permeability (Papp)” value [1] is reported as less than −7 Log [10^−6 cm/s].

For `COC(=O)Nc1nc2ccc(C(=O)c3ccccc3)cc2[nH]1` [Mebendazole], the logD [10] was 3.26 ± 0.01.

In the case of `CN(C)CCCN1c2ccccc2Sc2ccc(Cl)cc21` [Chlorpromazine], the “Permeability (Papp)” value [1] is reported as −5.4 ± 0.13 Log [10^−6 cm/s].
